Test results published in patent US10473647B1, “Peptides for use in treatment and diagnosis of type 1 diabetes” (ImmusanT, Inc., priority 2014, dated 2019).

Key:
Type in all cases: cell-based, human
[1] = system: CD8+ T cell depleted blood; assay: Whole blood cytokine assay, IP-10, CD8+ T cell depleted blood (Example 2); details: T1D Subjects (n of 6), 24 h, peptides 20 ug/mL, pools 4 ug/mL, NEX-01/Nexgen POOL 25 uM, CEFT 1 ug/mL
Protocol: (§1) Depletion of human CD4+ and CD8+ T cells directly from whole blood, using CD4 and CD8 Dynabeads respectively (Dynabeads Human CD4, Life Technologies, #11145D; Dynabeads Human CD8, Life Technologies, #11145D), was done according to the manufacturer's protocol. Briefly, the Dynabeads were resuspended and the desired volume was transferred to a 15 Ml tube. The calculation of the volume of beads added to whole blood was 2×10^6 CD4 beads (25 μL) and 4×10^6 CD8 beads (50 μL) per Ml of whole blood. The beads were first washed with 3 Ml PBS, vortexed and placed on the magnet for 1 minute. Supernatant was discarded and beads were removed from the magnet. Whole blood was then added to the beads at the volume calculated for the concentration of beads in the tubes. The tubes containing whole blood and Dynabeads were then incubated 45 minutes at 4° C. on a continuous rocker.
(§2) Tubes were then placed into the magnet for 2 minutes. The whole blood supernatant was then transferred to a new tube for use in 24-hour Whole Blood Assay or for Flow Cytometric Analysis. Magnetic beads were discarded.
(§3) The depleted blood as well as the remaining undepleted whole blood was then utilized in whole blood cytokine release assays. T-cell cytokine responses were assessed for reactivity to pools of 17mer peptides encompassing all unique 12mer amino-acid sequences derived from pancreatic islet antigens commonly recognized by autoantibodies in T1D: insulin, glutamic decarboxylase-65 (GAD65), and insulinoma-associated antigen (IA)-2 as provided in Table 13A and Table 13B.
(§4) Fresh heparinized blood was incubated with peptide. Concentrations of individual islet-autoantigen peptides were 20 μg/mL and constituent peptides in islet-autoantigen pools were 4 ug/mL. Control MHC class II peptide mix CEFT was used at 1 μg/mL. Gliadin peptide pools were added to whole blood assays at 25 μM. Whole blood assays were incubated for 24 h at 37° C. in 5% CO2. Plasma was separated from blood after centrifugation at 500×g for 10 minutes at room temperature and then transferred to a corresponding well in a “mirror image” sterile 96-well plate. and frozen at −80° C. until use. Multiplex bead-based cytokine assays (MAGPix) were performed according to manufacturer's instructions on thawed plasma. Concentrations of interferon (IFN)-γ-induced protein-10 (IP-10), interleukin (IL)-2 and IFN-γ. Table 14 is a summary of the results for the whole blood cytokine assays which expresses the data in the number of subjects that are positive for ≥1.25 fold production of cytokine over cells incubated with medium only (background).

[2] = system: undepleted whole blood; assay: Whole blood cytokine assay, IP-10, undepleted blood, number of subjects with >=1.25 fold over medium (Example 2); details: 24 h, peptides 20 ug/mL, pools 4 ug/mL, NEX-01/Nexgen POOL 25 uM, CEFT 1 ug/mL
Protocol: as §3, §4

[3] = system: CD4+ T cell depleted blood; assay: Whole blood cytokine assay, IFNg, CD4+ T cell depleted blood (Example 2); details: T1D Subjects (n of 6), 24 h, peptides 20 ug/mL, pools 4 ug/mL, NEX-01/Nexgen POOL 25 uM, CEFT 1 ug/mL
Protocol: as §1, §2, §3, §4

[4] = system: CD8+ T cell depleted blood; assay: Whole blood cytokine assay, IL-2, CD8+ T cell depleted blood (Example 2); details: T1D Subjects (n of 6), 24 h, peptides 20 ug/mL, pools 4 ug/mL, NEX-01/Nexgen POOL 25 uM, CEFT 1 ug/mL
Protocol: as §1, §2, §3, §4

[5] = system: whole blood from subjects with T1D and Celiac disease; assay: Whole blood cytokine release assay, IP-10 (MAGPIX), Example 1; details: individual 17mer 20 μg/mL, blood 6 days after commencing oral gluten challenge; for subjects with elevated whole blood IP-10 release (2-fold greater than medium alone): four subjects
[6] = system: whole blood from subjects with T1D and Celiac disease; assay: Whole blood cytokine release assay, IL-2 (MAGPIX), Example 1; details: individual 17mer 20 μg/mL, blood 6 days after commencing oral gluten challenge
[7] = system: whole blood from subjects with T1D and Celiac disease; assay: Whole blood cytokine release assay, IFN-γ (MAGPIX), Example 1; details: individual 17mer 20 μg/mL, blood 6 days after commencing oral gluten challenge
[8] = system: CD8+ T cell depleted blood; assay: Whole blood cytokine assay, IFNg, CD8+ T cell depleted blood (Example 2); details: T1D Subjects (n of 6), 24 h, peptides 20 ug/mL, pools 4 ug/mL, NEX-01/Nexgen POOL 25 uM, CEFT 1 ug/mL
Protocol: as §1, §2, §3, §4

[9] = Healthy Subjects (n of 4), whole blood
[10] = T1D Subjects (n of 6), Undepleted WB

Substance	Fold Change IP-10, number of subjects positive for ≥1.25 fold production of cytokine over medium only [2, 9]	IP-10 fold-change ([5]; Subject 1)	IP-10 fold-change (preproinsulin peptides) ([5]; Subject 1) [fold]	IP-10 fold-change ([5]; Subject 2)	IP-10 fold-change (preproinsulin peptides) ([5]; Subject 2) [fold]	IP-10 fold-change ([5]; Subject 6)	IP-10 fold-change (preproinsulin peptides) ([5]; Subject 6) [fold]	IP-10 fold-change ([5]; Subject 7)	IP-10 fold-change (preproinsulin peptides) ([5]; Subject 7) [fold]	IL-2 fold-change ([6]; Subject 1)	IL-2 fold-change (preproinsulin peptides) ([6]; Subject 1) [fold]	IL-2 fold-change ([6]; Subject 2)	IL-2 fold-change (preproinsulin peptides) ([6]; Subject 2) [fold]	IL-2 fold-change ([6]; Subject 6)	IL-2 fold-change (preproinsulin peptides) ([6]; Subject 6) [fold]	IL-2 fold-change ([6]; Subject 7)	IL-2 fold-change (preproinsulin peptides) ([6]; Subject 7) [fold]	IFN-g fold-change ([7]; Subject 1)	IFN-g fold-change (preproinsulin peptides) ([7]; Subject 1) [fold]	IFN-g fold-change ([7]; Subject 2)	also measured
L3P1, 046 (PKAARPPVTPVLLEKKS)	1/4	–	–	–	–	–	–	–	–	–	–	–	–	–	–	–	–	–	–	–	Fold Change IP-10, number of subjects positive for ≥1.25 fold production of cytokine over medium only [1]: 2/6; Fold Change IP-10, number of subjects positive for ≥1.25 fold production of cytokine over medium only [2, 10]: 1/6
L3P1, 007 (SPLQAELLPPLLEHLLL)	2/4	–	–	–	–	–	–	–	–	–	–	–	–	–	–	–	–	–	–	–	Fold Change IFNg, number of subjects positive for ≥1.25 fold production of cytokine over medium only [3]: 1/6; Fold Change IP-10, number of subjects positive for ≥1.25 fold production of cytokine over medium only [1]: 1/6
20150-01: peptide tested in Example 2 whole blood cytokine assays (Tables 13A/13B, 14) (FYTPKTRREAEDLQGSL)	2/4	–	–	–	–	–	–	–	–	–	–	–	–	–	–	–	–	–	–	–	Fold Change IP-10, number of subjects positive for ≥1.25 fold production of cytokine over medium only [2, 10]: 4/6; Fold Change IL-2, number of subjects positive for ≥1.25 fold production of cytokine over medium only [4]: 1/6
MALWMRLLPLLALLALW [SEQ ID NO: 54]	–	1.04	1.04	1.05	1.05	2.20	2.20	0.73	0.73	1.00	1.00	1.00	1.00	1.00	1.00	0.21	0.21	1.02	1.02	1.01	subjects with elevated whole blood IP-10 release (2-fold greater than medium alone) [5]: stimulated IP-10 release in the strongest responder; IFN-g fold-change (preproinsulin peptides) ([7]; Subject 2): 1.01 fold; IFN-g fold-change ([7]; Subject 6): 0.88; IFN-g fold-change (preproinsulin peptides) ([7]; Subject 6): 0.88 fold; IFN-g fold-change ([7]; Subject 7): 0.67; IFN-g fold-change (preproinsulin peptides) ([7]; Subject 7): 0.67 fold
11 (FNQLSTGLDMVGLAADW) [compound 11]	–	–	–	–	–	–	–	–	–	–	–	–	–	–	–	–	–	–	–	–	IP-10 fold-change (GAD65 peptides) ([5]; Subject 1): 23.55 fold; IP-10 fold-change (GAD65 peptides) ([5]; Subject 2): 5.90 fold; IP-10 fold-change (GAD65 peptides) ([5]; Subject 6): 57.27 fold; IP-10 fold-change (GAD65 peptides) ([5]; Subject 7): 15.66 fold; IL-2 fold-change (GAD65 peptides) ([6]; Subject 1): 1.00 fold; IL-2 fold-change (GAD65 peptides) ([6]; Subject 2): 1.00 fold; IL-2 fold-change (GAD65 peptides) ([6]; Subject 6): 1.28 fold; IL-2 fold-change (GAD65 peptides) ([6]; Subject 7): 1.37 fold; IFN-g fold-change (GAD65 peptides) ([7]; Subject 1): 0.94 fold; IFN-g fold-change (GAD65 peptides) ([7]; Subject 2): 1.15 fold; IFN-g fold-change (GAD65 peptides) ([7]; Subject 6): 0.81 fold; IFN-g fold-change (GAD65 peptides) ([7]; Subject 7): 1.05 fold
10 (NVCFWYIPPSLRTLEDN) [compound 10]	–	–	–	–	–	–	–	–	–	–	–	–	–	–	–	–	–	–	–	–	IP-10 fold-change (GAD65 peptides) ([5]; Subject 1): 10.24 fold; IP-10 fold-change (GAD65 peptides) ([5]; Subject 2): 8.08 fold; IP-10 fold-change (GAD65 peptides) ([5]; Subject 6): 6.04 fold; IP-10 fold-change (GAD65 peptides) ([5]; Subject 7): 9.00 fold; IL-2 fold-change (GAD65 peptides) ([6]; Subject 1): 1.00 fold; IL-2 fold-change (GAD65 peptides) ([6]; Subject 2): 1.00 fold; IL-2 fold-change (GAD65 peptides) ([6]; Subject 6): 1.49 fold; IL-2 fold-change (GAD65 peptides) ([6]; Subject 7): 3.40 fold; IFN-g fold-change (GAD65 peptides) ([7]; Subject 1): 0.78 fold; IFN-g fold-change (GAD65 peptides) ([7]; Subject 2): 0.66 fold; IFN-g fold-change (GAD65 peptides) ([7]; Subject 6): 1.42 fold; IFN-g fold-change (GAD65 peptides) ([7]; Subject 7): 1.58 fold
GRTGTYILIDMVLNRMA [SEQ ID NO: 12]	–	–	–	–	–	–	–	–	–	–	–	–	–	–	–	–	–	–	–	–	subjects with elevated whole blood IP-10 release (2-fold greater than medium alone) [5]: consistently stimulated; subjects with elevated whole blood IL-2 release ([6]; four subjects): consistently stimulated; subjects with elevated whole blood IFN-γ release ([7]; four subjects): in two subjects
RREAEDLEGSLQPLALE [SEQ ID NO: 49]	–	1.36	1.36	2.58	2.58	3.15	3.15	0.99	0.99	1.00	1.00	1.00	1.00	1.08	1.08	0.42	0.42	0.99	0.99	1.27	IFN-g fold-change (preproinsulin peptides) ([7]; Subject 2): 1.27 fold; IFN-g fold-change ([7]; Subject 6): 1.00; IFN-g fold-change (preproinsulin peptides) ([7]; Subject 6): 1.00 fold; IFN-g fold-change ([7]; Subject 7): 0.77; IFN-g fold-change (preproinsulin peptides) ([7]; Subject 7): 0.77 fold
20150-15 (LQGSLQPLALEGSLQKR) [Peptide 20150-15]	–	–	–	–	–	–	–	–	–	–	–	–	–	–	–	–	–	–	–	–	Fold Change IFNg, number of subjects positive for ≥1.25 fold production of cytokine over medium only [3]: 1/6; Fold Change IFNg, number of subjects positive for ≥1.25 fold production of cytokine over medium only [8]: 2/6; Fold Change IL-2, number of subjects positive for ≥1.25 fold production of cytokine over medium only [4]: 1/6
PKTRREAEVGQVELGGG [SEQ ID NO: 52]	–	1.08	1.08	1.56	1.56	3.69	3.69	0.97	0.97	1.00	1.00	1.00	1.00	1.00	1.00	0.21	0.21	1.07	1.07	1.08	IFN-g fold-change (preproinsulin peptides) ([7]; Subject 2): 1.08 fold; IFN-g fold-change ([7]; Subject 6): 0.81; IFN-g fold-change (preproinsulin peptides) ([7]; Subject 6): 0.81 fold; IFN-g fold-change ([7]; Subject 7): 0.52; IFN-g fold-change (preproinsulin peptides) ([7]; Subject 7): 0.52 fold
